The target of this test is MAGL (recombinant wild-type) (Homo sapiens (Human), UniProt Q99685). In words: 4-NPA assay: MAGL inhibitory activity by hydrolysis of 4-nitrophenylacetate (absorbance at 405 nm). The following applies: measured in 4-NPA assay (footnote [a]); 1 nM MAGL, 300 μM 4-nitrophenylacetate. The format is biochemical. As for the experimental part: This assay is hereinafter abbreviated “4-NPA assay”.
The plate was shaked for 1 min at 2000 rpm (Variomag Teleshake) and then incubated for 15 min at RT. […] The final concentrations in the assay were 1 nM MAGL and 300 μM 4-Nitrophenylacetate. […] A second measurement was then done after incubation for 80 min at RT. From the two measurements, the slope was calculated by subtracting the first from the second measurement.

Structures are written as SMILES.

Chain of MAGL (recombinant wild-type) (Q99685 whole entry, species assumed): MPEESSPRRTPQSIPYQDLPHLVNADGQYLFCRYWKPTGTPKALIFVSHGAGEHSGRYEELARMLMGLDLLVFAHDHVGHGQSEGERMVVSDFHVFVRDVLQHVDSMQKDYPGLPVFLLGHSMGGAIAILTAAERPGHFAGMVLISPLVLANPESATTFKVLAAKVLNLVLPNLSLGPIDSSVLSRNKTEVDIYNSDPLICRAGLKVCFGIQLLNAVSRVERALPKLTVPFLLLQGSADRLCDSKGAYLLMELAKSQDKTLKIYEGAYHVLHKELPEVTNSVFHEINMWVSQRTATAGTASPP

A word on the IC50: it is the concentration that gives 50% inhibition. Turning to `CC(C)(C)c1csc(CC2CCN(C(=O)N3CC[C@@H]4OCC(=O)N[C@@H]4C3)CC2)n1` (racemic) [Example 3, rac-(4aR,8aS)-6-[4-[(4-tert-Butylthiazol-2-yl)methyl]piperidine-1-carbonyl]-4,4a,5,7,8,8a-hexahydropyrido[4,3-b][1,4]oxazin-3-one], the IC50 was determined as 66 nM. With `O=C1CO[C@H]2CCN(C(=O)N3CC(OCc4cc(F)cc(C(F)(F)F)c4)C3)C[C@H]2N1` [Example 101] the figure was 11 nM; with `O=C1CO[C@H]2CCN(C(=O)N3CCC(Cc4ccc(C(F)(F)F)cc4)CC3)C[C@H]2N1` (racemic) [Example 11, rac-(4aR,8aS)-6-[4-[[4-(Trifluoromethyl)phenyl]methyl]piperidine-1-carbonyl]-4,4a,5,7,8,8a-hexahydropyrido[4,3-b][1,4]oxazin-3-one], 42 nM; with `CC1C(OCc2ccc(C(F)(F)F)cc2)CN1C(=O)N1CC[C@@H]2OCC(=O)N[C@@H]2C1` (single isomer, unassigned) [Example 104], 451 nM. In the case of `O=C1CO[C@H]2CCN(C(=O)N3CCC(Cc4ccc(C(F)(F)F)cc4)C3)C[C@H]2N1` (some centres unmarked) [Example 100], the IC50 came out at 82 nM. Turning to `COc1ccc(OCC2CCN(C(=O)N3CC[C@@H]4OCC(=O)N[C@@H]4C3)CC2)c(F)c1` [Example 39, (4aR,8aS)-6-[4-[(2-Fluoro-4-methoxyphenoxy)methyl]piperidine-1-carbonyl]-4,4a,5,7,8,8a-hexahydropyrido[4,3-b][1,4]oxazin-3-one], the IC50 is 116 nM.

As for `CC(C)(C)c1cnn(CC2CCN(C(=O)N3CC[C@@H]4OCC(=O)N[C@@H]4C3)CC2)c1` [Example 66], the IC50 is 351 nM. With `O=C1CO[C@H]2CCN(C(=O)N3CCC(COc4ccc(F)cc4Cl)CC3)C[C@H]2N1` [Example 24] the figure was 4 nM.

Consider `O=C1CO[C@H]2CCN(C(=O)N3CCC(COc4ccc(F)cc4Cl)CC3)C[C@H]2N1` [Example 7], for which the IC50 was 11 nM. For `O=C1CO[C@H]2CCN(C(=O)N3CCC(Oc4ccc(Cl)c(-c5ccc(Cl)cc5)c4)CC3)C[C@H]2N1` [Example 73] the value was 8 nM; for `O=C1CO[C@H]2CCN(C(=O)N3CC(OCc4cc(C(F)(F)F)ccc4F)C3)C[C@H]2N1` [Example 113], 5 nM; for `O=C1CO[C@H]2CCN(C(=O)N3CCC(OCc4cccc(Cl)c4)C3)C[C@H]2N1` (some centres unmarked) [Example 94], 150 nM.

For the compound `CC1(COc2ccc(F)cc2Cl)CCN(C(=O)N2CC[C@@H]3OCC(=O)N[C@@H]3C2)CC1` [Example 79, (4aR,8aS)-6-(4-((2-chloro-4-fluorophenoxy)methyl)-4-methylpiperidine-1-carbonyl)hexahydro-2H-pyrido[4,3-b][1,4]oxazin-3(4H)-one], the 50% inhibitory concentration (IC50) came to 1 nM. With `O=C1CO[C@H]2CCN(C(=O)N3CCC(Cc4nc5ccccc5o4)CC3)C[C@H]2N1` [Example 72] the figure was 108 nM.

For the origin of these results see patent US11802133B2, “Heterocyclic compounds as monoacylglycerol lipase inhibitors” (Hoffmann-La Roche Inc., priority 2018, dated 2023).
